Data reported in PubChem BioAssay AID276 (DTP/NCI, 2004).
Several values for one entry are separate records, joined by “and”; a condition that tells them apart may be missing. Equal entries are not always repeated. Toxic doses and inconclusive results are not listed.

Tested on: B6C3F1 mice, Lewis lung carcinoma iv, survival T/C
Experiment: NCI In Vivo Anticancer Drug Screen. Data for tumor model Lewis Lung Carcinoma (intravenous) in B6C3F1 mice
Settings: endpoint: median survival time, higher = longer survival
How it was run: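 T/C ratio derived from survival of compound-treated versus vehicle-treated mice bearing transplantable tumors.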

[1] = dose: 25.0 mg/kg/injection, schedule: Q01DX009 (ip), vehicle: saline
[2] = dose: 50.0 mg/kg/injection, schedule: Q01DX009 (ip), vehicle: saline
[3] = dose: 100.0 mg/kg/injection, schedule: Q01DX009 (ip), vehicle: saline
[4] = dose: 200.0 mg/kg/injection, schedule: Q01DX009 (ip), vehicle: saline
[5] = dose: 400.0 mg/kg/injection, schedule: Q01DX009 (ip), vehicle: saline
[6] = dose: 12.5 mg/kg/injection, schedule: Q01DX009 (ip), vehicle: saline
[7] = dose: 12.5 mg/kg/injection, schedule: Q01DX009 (ip), vehicle: saline with Tween-80
[8] = dose: 25.0 mg/kg/injection, schedule: Q01DX009 (ip), vehicle: saline with Tween-80
[9] = dose: 50.0 mg/kg/injection, schedule: Q01DX009 (ip), vehicle: saline with Tween-80
[10] = dose: 100.0 mg/kg/injection, schedule: Q01DX009 (ip), vehicle: saline with Tween-80
[11] = dose: 1.56 mg/kg/injection, schedule: Q01DX009 (ip), vehicle: Klucel (hydroxypropylcellulose) (HPC)
[12] = dose: 3.12 mg/kg/injection, schedule: Q01DX009 (ip), vehicle: Klucel (hydroxypropylcellulose) (HPC)
[13] = dose: 6.25 mg/kg/injection, schedule: Q01DX009 (ip), vehicle: Klucel (hydroxypropylcellulose) (HPC)
[14] = dose: 6.25 mg/kg/injection, schedule: Q01DX009 (ip), vehicle: saline with Tween-80

With `O=C(NO)c1ccc(O)c(O)c1` the T/C [1] was 100 % of control, the T/C [2] was 98 % of control and the T/C (dose: 50.0 mg/kg/injection, schedule: Q01DX009 (ip), vehicle: suspension in saline) was 98 % of control. The T/C [3] was 101 % of control, the T/C (dose: 100.0 mg/kg/injection, schedule: Q01DX009 (ip), vehicle: suspension in saline) was 110 % of control and the T/C [4] was 100 % of control. For the same molecule, the T/C (dose: 200.0 mg/kg/injection, schedule: Q01DX009 (ip), vehicle: suspension in saline) was 118 % of control, the T/C [5] was 158 % of control and the T/C (dose: 400.0 mg/kg/injection, schedule: Q01DX009 (ip), vehicle: suspension in saline) was 124 % of control.
For `NC(Cn1ccc(=O)c(O)c1)C(=O)O` (stereo unspecified), the T/C [6] was 94 % of control, the T/C [1] was 98 % of control and the T/C [2] was 102 % of control. For the same molecule, the T/C [3] was 94 % of control and the T/C [4] was 94 % of control.
With `NC(C(=O)O)c1ccc(CBr)cc1` (stereo unspecified) the T/C [7] was 97 % of control, the T/C [8] was 100 % of control and the T/C [9] was 105 % of control. For the same molecule, the T/C [10] was 93 % of control.
For `COc1ccc(Cl)[n+]([O-])n1`, the T/C (dose: 0.39 mg/kg/injection, schedule: Q01DX009 (ip), vehicle: Klucel (hydroxypropylcellulose) (HPC)) was 98 % of control, the T/C (dose: 0.78 mg/kg/injection, schedule: Q01DX009 (ip), vehicle: Klucel (hydroxypropylcellulose) (HPC)) was 91 % of control and the T/C [11] was 103 % of control. For the same molecule, the T/C [12] was 96 % of control, the T/C [13] was 100 % of control and 88 % of control and the T/C (dose: 12.5 mg/kg/injection, schedule: Q01DX009 (ip), vehicle: Klucel (hydroxypropylcellulose) (HPC)) was 99 % of control and 105 % of control. For the same molecule, the T/C (dose: 25.0 mg/kg/injection, schedule: Q01DX009 (ip), vehicle: Klucel (hydroxypropylcellulose) (HPC)) was 107 % of control and the T/C (dose: 50.0 mg/kg/injection, schedule: Q01DX009 (ip), vehicle: Klucel (hydroxypropylcellulose) (HPC)) was 112 % of control.
`CC12CC(C(=O)O)C3(O)CC(C)(C1)CC(C)(C2)C3` (stereo unspecified) (tested in a mixture with another compound) was tested, and the T/C (dose: 100.0 mg/kg/injection, schedule: Q01DX009 (ip), vehicle: Klucel (hydroxypropylcellulose) (HPC)) was 124 % of control, the T/C (dose: 200.0 mg/kg/injection, schedule: Q01DX009 (ip), vehicle: Klucel (hydroxypropylcellulose) (HPC)) was 114 % of control and the T/C (dose: 400.0 mg/kg/injection, schedule: Q01DX009 (ip), vehicle: Klucel (hydroxypropylcellulose) (HPC)) was 98 % of control.
`Cn1c2ccccc2c2ccc3c(c21)C(=O)C=CC3=O` was tested, and the T/C (dose: 1.56 mg/kg/injection, schedule: Q01DX009 (ip), vehicle: saline with Tween-80) was 99 % of control, the T/C (dose: 3.12 mg/kg/injection, schedule: Q01DX009 (ip), vehicle: saline with Tween-80) was 106 % of control and the T/C [14] was 107 % of control. The T/C [7] was 93 % of control and 101 % of control.
`CC(O)CCC(=O)c1ccoc1` (stereo unspecified) was tested, and the T/C (dose: 0.62 mg/kg/injection, schedule: Q03HX027 (ip), vehicle: saline) was 105 % of control, the T/C (dose: 1.25 mg/kg/injection, schedule: Q03HX027 (ip), vehicle: saline) was 97 % of control and the T/C (dose: 2.5 mg/kg/injection, schedule: Q03HX027 (ip), vehicle: saline) was 103 % of control. The T/C (dose: 5.0 mg/kg/injection, schedule: Q03HX027 (ip), vehicle: saline) was 94 % of control.
For `O=C1C(O)=C(c2ccccc2)C(=O)C(O)=C1c1ccccc1`, the T/C (dose: 1.56 mg/kg/injection, schedule: Q01DX009 (ip), vehicle: saline) was 98 % of control, the T/C (dose: 3.12 mg/kg/injection, schedule: Q01DX009 (ip), vehicle: saline) was 98 % of control and 117 % of control and the T/C [14] was 99 % of control. For the same molecule, the T/C (dose: 6.25 mg/kg/injection, schedule: Q01DX009 (ip), vehicle: saline) was 99 % of control and 118 % of control, the T/C [7] was 101 % of control and the T/C [6] was 108 % of control and 113 % of control. For the same molecule, the T/C [8] was 101 % of control, the T/C [1] was 98 % of control and 104 % of control and the T/C [9] was 102 % of control. For the same molecule, the T/C [2] was 94 % of control and 99 % of control.
In the case of `O=NN(CCCl)C(=O)NC1CCC(CC2CCC(NC(=O)N(CCCl)N=O)CC2)CC1` (stereo unspecified), the T/C [8] was 190 % of control and the T/C [9] was 165 % of control.
In the case of `CC(C)[C@](O)(C(=O)OCC1=CCN2CC[C@@H](O)[C@@H]12)[C@H](C)O`, the T/C (dose: 25.0 mg/kg/injection, schedule: Q01DX009 (ip), vehicle: water) was 100 % of control, the T/C (dose: 50.0 mg/kg/injection, schedule: Q01DX009 (ip), vehicle: water) was 97 % of control and the T/C (dose: 100.0 mg/kg/injection, schedule: Q01DX009 (ip), vehicle: water) was 100 % of control. The T/C (dose: 200.0 mg/kg/injection, schedule: Q01DX009 (ip), vehicle: water) was 109 % of control and the T/C (dose: 400.0 mg/kg/injection, schedule: Q01DX009 (ip), vehicle: water) was 102 % of control.
In the case of `O=C1C=C2C(=CCOC2O)O1` (stereo unspecified), the T/C (dose: 0.25 mg/kg/injection, schedule: Q01DX009 (ip), vehicle: Klucel (hydroxypropylcellulose) (HPC)) was 99 % of control, the T/C (dose: 0.5 mg/kg/injection, schedule: Q01DX009 (ip), vehicle: Klucel (hydroxypropylcellulose) (HPC)) was 104 % of control and the T/C (dose: 0.75 mg/kg/injection, schedule: Q01DX009 (ip), vehicle: saline) was 97 % of control. The T/C (dose: 1.0 mg/kg/injection, schedule: Q01DX009 (ip), vehicle: Klucel (hydroxypropylcellulose) (HPC)) was 94 % of control, the T/C (dose: 1.5 mg/kg/injection, schedule: Q01DX009 (ip), vehicle: saline) was 98 % of control and the T/C (dose: 2.0 mg/kg/injection, schedule: Q01DX009 (ip), vehicle: Klucel (hydroxypropylcellulose) (HPC)) was 98 % of control. The T/C (dose: 3.0 mg/kg/injection, schedule: Q01DX009 (ip), vehicle: saline) was 98 % of control and the T/C (dose: 4.0 mg/kg/injection, schedule: Q01DX009 (ip), vehicle: Klucel (hydroxypropylcellulose) (HPC)) was 94 % of control.
With `CC(=O)Oc1c(C)[nH]ccc1=O` the T/C [1] was 97 % of control, the T/C [2] was 96 % of control and the T/C [3] was 96 % of control. For the same molecule, the T/C [4] was 103 % of control and the T/C [5] was 114 % of control.
For `COC(=O)C(N)Cc1ccc(O)c(O)c1` (stereo unspecified), the T/C [6] was 107 % of control, the T/C [1] was 103 % of control and the T/C [2] was 101 % of control. The T/C [3] was 109 % of control, the T/C [4] was 92 % of control and the T/C [5] was 95 % of control. For the same molecule, the T/C (dose: 800.0 mg/kg/injection, schedule: Q01DX009 (ip), vehicle: saline) was 95 % of control.
`COc1c(C=O)c2c(c(OC)c1OC)-c1ccc(OC)c(=O)cc1[C@@H](NC(C)=O)CC2` was tested, and the T/C [11] was 95 % of control, the T/C [12] was 98 % of control and the T/C [13] was 95 % of control.
In the case of `O=C1CCCCC1C(=O)C(F)(F)F` (stereo unspecified), the T/C (dose: 12.5 mg/kg/injection, schedule: Q01DX009 (ip), vehicle: saline + Tween-80 + alcohol) was 96 % of control, the T/C (dose: 25.0 mg/kg/injection, schedule: Q01DX009 (ip), vehicle: saline + Tween-80 + alcohol) was 111 % of control and the T/C (dose: 50.0 mg/kg/injection, schedule: Q01DX009 (ip), vehicle: saline + Tween-80 + alcohol) was 94 % of control.
For `O=C1[C@H]2CCC[C@H]2[C@H]2CCC[C@@H]12`, the T/C [14] was 95 % of control, the T/C [7] was 104 % of control and the T/C [8] was 98 % of control. For the same molecule, the T/C [9] was 95 % of control, the T/C [10] was 91 % of control and the T/C (dose: 200.0 mg/kg/injection, schedule: Q01DX009 (ip), vehicle: saline with Tween-80) was 102 % of control.
`CN(C)CCN1C(=O)c2cccc3cc([N+](=O)[O-])cc(c23)C1=O` was tested, and the T/C (dose: 0.75 mg/kg/injection, schedule: Q01DX009 (ip), vehicle: saline with Tween-80) was 94 % of control, the T/C (dose: 1.5 mg/kg/injection, schedule: Q01DX009 (ip), vehicle: saline with Tween-80) was 93 % of control and the T/C (dose: 3.0 mg/kg/injection, schedule: Q01DX009 (ip), vehicle: saline with Tween-80) was 101 % of control. For the same molecule, the T/C (dose: 6.0 mg/kg/injection, schedule: Q01DX009 (ip), vehicle: saline with Tween-80) was 95 % of control.
With `CCC12C[N+]3([O-])CCc4c([nH]c5ccccc45)C(C(=O)OC)(c4cc5c(cc4OC)N(C)C4C(O)(C(=O)OC)C(OC(C)=O)C6(CC)C=CCN7CCC54C76)CC(C3)C1O2` (stereo unspecified) the T/C (dose: 0.62 mg/kg/injection, schedule: Q01DX009 (ip), vehicle: water) was 93 % of control, the T/C (dose: 1.25 mg/kg/injection, schedule: Q01DX009 (ip), vehicle: water) was 94 % of control and the T/C (dose: 2.5 mg/kg/injection, schedule: Q01DX009 (ip), vehicle: water) was 97 % of control. The T/C (dose: 5.0 mg/kg/injection, schedule: Q01DX009 (ip), vehicle: water) was 95 % of control, the T/C (dose: 10.0 mg/kg/injection, schedule: Q01DX009 (ip), vehicle: water) was 98 % of control and the T/C (dose: 20.0 mg/kg/injection, schedule: Q01DX009 (ip), vehicle: water) was 101 % of control.
